The text below walks through data of article PMC7918823, “Novel Potent and Selective DPP-4 Inhibitors: Design, Synthesis and Molecular Docking Study of Dihydropyrimidine Phthalimide Hybrids” (Pharmaceuticals, 2021).

Data set [1] concerns HFD-induced type 2 diabetic rats. The data set can be described thus: Oral glucose tolerance test after chronic treatment in HFD-induced type 2 diabetic rats. It counts as in vivo, SD rats. The conditions noted are these: for Glucose tolerance (AUC of OGTT versus non-treated diabetic group): 10 mg/kg/day oral, in absence of MET; for Reduction of AUC of OGTT by MET addition: hybrid 10 mg/kg/day oral plus MET 150 mg/kg/day. From the text:
After acclimatization period, rats were randomly divided into 25 groups, each of seven rats. The first group was normal control group which maintained on normal rat chow for the entire experiment period (16 weeks). The second group served as diabetic control group in which T2DM was induced by HFD that consisted of casein (30%), raw beef fat (Suet, 40%), wheat flour (7%), glucose (10%), salt mixture (6%), vitamin mixture (3%), and bran (4%), for 16 weeks. […] At the end of treatment regimen that lasted for four weeks; using our synthesized hybrids 10a–j with and without MET, rats were fasted overnight (12 h) with free access to water. Oral glucose tolerance test (OGTT) was performed as previously described. […] Roche Diagnostics, Rotkreuz, Switzerland).

For the next data set, the target named is T1, recombinant human DPP-4 (Homo sapiens, UniProt P27487).
T1 construct: purchased Sigma Aldrich
T1 sequence (P27487 whole entry): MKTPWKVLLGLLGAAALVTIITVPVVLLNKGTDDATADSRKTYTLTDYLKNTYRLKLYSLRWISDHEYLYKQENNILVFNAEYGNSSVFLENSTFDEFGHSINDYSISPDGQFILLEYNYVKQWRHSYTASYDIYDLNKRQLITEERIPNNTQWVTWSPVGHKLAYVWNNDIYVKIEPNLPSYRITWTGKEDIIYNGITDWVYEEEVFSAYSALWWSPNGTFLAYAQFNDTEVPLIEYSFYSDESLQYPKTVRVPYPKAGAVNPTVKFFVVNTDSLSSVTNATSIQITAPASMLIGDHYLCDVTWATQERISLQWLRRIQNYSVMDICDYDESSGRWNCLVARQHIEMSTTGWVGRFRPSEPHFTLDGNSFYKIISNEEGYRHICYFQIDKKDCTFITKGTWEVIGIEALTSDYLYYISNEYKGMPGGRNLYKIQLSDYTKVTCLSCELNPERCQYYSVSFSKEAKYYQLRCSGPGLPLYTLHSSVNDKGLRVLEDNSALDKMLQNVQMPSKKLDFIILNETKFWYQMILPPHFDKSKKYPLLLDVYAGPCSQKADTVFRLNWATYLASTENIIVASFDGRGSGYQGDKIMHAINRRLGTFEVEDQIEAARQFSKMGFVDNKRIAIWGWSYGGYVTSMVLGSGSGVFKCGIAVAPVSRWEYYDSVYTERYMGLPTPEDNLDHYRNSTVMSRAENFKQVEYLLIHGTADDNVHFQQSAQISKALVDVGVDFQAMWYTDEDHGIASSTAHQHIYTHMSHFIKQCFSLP
The data set can be described thus: In vitro DPP-4 inhibition assay (continuous fluorometric, Gly-Pro-AMC). The conditions noted are these: for IC50: recombinant human DPP-4, mean ± SE of four replicates; for Fold DPP-4 inhibitory activity relative to alogliptin: from IC50 values, versus alogliptin. It is filed as biochemical. Here is the method: (§1) DPP-4 inhibition was assessed, as previously described, based on a continuous fluorometric assay method in which the substrate Gly-Pro-AMC (Gly-Pro-7-amido-4-methylcoumarin hydrobromide) was split by DPP-4 to release fluorescent aminomethyl coumarin (AMC). The liberated AMC was continuously monitored using an excitation wavelength of 360 nm and an emission wavelength of 460 nm using an EnVision microplate reader (PerkinElmer, Waltham, MA, USA). The reaction mixture consisted of different concentrations of the synthesized hybrids 10a–j, 20 µU/µL of recombinant human DPP-4 (Sigma Aldrich, St. Louis, MO, USA), 10 µM Gly-Pro-AMC (Sigma Aldrich, St. Louis, MO, USA) and assay buffer (150 mM NaCl, 25 mM 4-(2-hydroxyethyl)-1-piperazineethanesulfonic acid (HEPES), 0.12 mg/ml bovine serum albumin (BSA)) and pH of 7.5. The assay was carried out in quadruplicate. IC50 was calculated using GraphPad Prism 8 software (San Diego, CA, USA). Similar to the DPP-4 assay, DPP-8 and DPP-9 inhibition assay was performed and the pH of the assay buffer was 8.

The next data set has as its target DPP-8 (Homo sapiens, UniProt Q6V1X1). The data set can be described thus: In vitro DPP-8 inhibition assay. It is filed as biochemical. Conditions: assay buffer pH 8. The protocol: as §1
In another data set the target is DPP-9 (Homo sapiens, UniProt Q86TI2). The data set can be described thus: In vitro DPP-9 inhibition assay. It counts as biochemical. The conditions noted are these: assay buffer pH 8. The protocol:
as §1

Data set [2] is described as follows: Antioxidant activity (DPPH method). The conditions noted are these: 100 µM compound, 100 µM DPPH, 20 min, mean ± SE of four replicates. The protocol: DPPH (1,1-diphenyl-2-picrylhydrazyl) free radical is stable at rt and has a purple colour with a maximum absorption at 517 nm. This free radical is reduced by antioxidant molecules into 1,1-diphenyl-2-picrylhydrazine with resultant discolouration of free radical; this discolouration is stoichiometric with regard to the captured electrons. Accordingly, the fluctuation in the absorbance is an indicator for the antioxidant activity. Our synthesized hybrids 10a–j (100 µM) were mixed with DPPH (100 µM) and left for 20 min at rt, the absorbance was measured at 517 nm.
For orientation: The DPPH test is a chemical assay of radical scavenging.

Data set [3] is described as follows: Cytotoxicity test (MTT assay). It is filed as cell-based. Conditions: human, normal hepatic LO2 cells, read-out: cell viability. Here is the method:
We assessed any possible cytotoxic effect of our synthesized hybrids 10a–j on hepatic LO2 cells using MTT assay. The cells, in DMEM (Gibco, Invitrogen), were seeded in 96 well plates at density of 1 × 10^4/well. The synthesized compounds were added to the cells and incubated for 48 h at 37 °C and 5% CO2. Then, MTT reagent was added and the cells were re-incubated for further 4 h. After discarding the supernatants, the formed formazan crystals were dissolved in DMSO. The intensity of color was assessed using microplate reader (Bio-Rad Laboratories, Hercules, CA, USA) at 490 nm wavelength.
In general terms: Tetrazolium dyes change colour on reduction, which living cells bring about.

A further data set deals with T2, blood DPP-4 activity (Rattus norvegicus, UniProt P14740).
T2 construct: from tissue; host or cells: plasma of male SD rats
T2 sequence (P14740 37-767 limits assumed): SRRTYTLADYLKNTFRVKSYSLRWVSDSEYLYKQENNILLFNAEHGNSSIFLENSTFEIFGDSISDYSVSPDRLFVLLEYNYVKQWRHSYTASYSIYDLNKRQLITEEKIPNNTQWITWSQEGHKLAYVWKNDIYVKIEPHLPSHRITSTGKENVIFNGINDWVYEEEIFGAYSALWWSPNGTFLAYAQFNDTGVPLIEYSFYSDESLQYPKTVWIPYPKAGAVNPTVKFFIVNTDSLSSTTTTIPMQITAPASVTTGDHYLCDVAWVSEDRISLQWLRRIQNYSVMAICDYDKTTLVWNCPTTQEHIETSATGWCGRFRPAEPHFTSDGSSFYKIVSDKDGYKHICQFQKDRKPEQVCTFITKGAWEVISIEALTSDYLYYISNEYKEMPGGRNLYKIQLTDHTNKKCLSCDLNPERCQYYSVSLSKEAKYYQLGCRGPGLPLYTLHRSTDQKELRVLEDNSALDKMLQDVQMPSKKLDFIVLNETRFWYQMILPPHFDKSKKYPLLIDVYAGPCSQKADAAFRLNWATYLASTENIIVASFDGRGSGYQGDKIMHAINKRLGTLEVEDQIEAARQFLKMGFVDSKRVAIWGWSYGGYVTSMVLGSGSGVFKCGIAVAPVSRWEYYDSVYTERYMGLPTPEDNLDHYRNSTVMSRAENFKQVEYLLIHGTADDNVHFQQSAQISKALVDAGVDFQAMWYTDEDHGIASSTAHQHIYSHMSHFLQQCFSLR
The data set can be described thus: In vivo DPP-4 inhibition assay (blood DPP-4 activity). Conditions: SD rats, single oral dose 10 mg/kg. Here is the method: The assay was performed using male SD rats (n = 3 per group), as previously described. The synthesized hybrids 10a–j were suspended in […] cellulose (CMC) and administrated orally at a single dose of 10 mg/kg.
Blood samples were collected at time points 0, 6, 12, 24, 36 and 48 h. Plasma samples were extracted and kept at −20 °C until analysis time. Similar to the in vitro DPP-4 assay principle, plasma samples were mixed with equal volumes of Gly-Pro-AMC in assay buffer (100 mM HEPES, 0.1 mg/ml BSA) and pH of 7.5. The liberated AMC was continuously monitored using an excitation wavelength of 360 nm and an emission wavelength of 460 nm using EnVision microplate reader (PerkinElmer, Waltham, MA, USA). The data were expressed as% blood DPP-4 activity.

The mark [4] stands for this setting: combined with MET 150 mg/kg/day oral, four weeks (hybrid 10 mg/kg/day, alogliptin 20 mg/kg/day).

Sequence of DPP-8 (Q6V1X1 whole entry): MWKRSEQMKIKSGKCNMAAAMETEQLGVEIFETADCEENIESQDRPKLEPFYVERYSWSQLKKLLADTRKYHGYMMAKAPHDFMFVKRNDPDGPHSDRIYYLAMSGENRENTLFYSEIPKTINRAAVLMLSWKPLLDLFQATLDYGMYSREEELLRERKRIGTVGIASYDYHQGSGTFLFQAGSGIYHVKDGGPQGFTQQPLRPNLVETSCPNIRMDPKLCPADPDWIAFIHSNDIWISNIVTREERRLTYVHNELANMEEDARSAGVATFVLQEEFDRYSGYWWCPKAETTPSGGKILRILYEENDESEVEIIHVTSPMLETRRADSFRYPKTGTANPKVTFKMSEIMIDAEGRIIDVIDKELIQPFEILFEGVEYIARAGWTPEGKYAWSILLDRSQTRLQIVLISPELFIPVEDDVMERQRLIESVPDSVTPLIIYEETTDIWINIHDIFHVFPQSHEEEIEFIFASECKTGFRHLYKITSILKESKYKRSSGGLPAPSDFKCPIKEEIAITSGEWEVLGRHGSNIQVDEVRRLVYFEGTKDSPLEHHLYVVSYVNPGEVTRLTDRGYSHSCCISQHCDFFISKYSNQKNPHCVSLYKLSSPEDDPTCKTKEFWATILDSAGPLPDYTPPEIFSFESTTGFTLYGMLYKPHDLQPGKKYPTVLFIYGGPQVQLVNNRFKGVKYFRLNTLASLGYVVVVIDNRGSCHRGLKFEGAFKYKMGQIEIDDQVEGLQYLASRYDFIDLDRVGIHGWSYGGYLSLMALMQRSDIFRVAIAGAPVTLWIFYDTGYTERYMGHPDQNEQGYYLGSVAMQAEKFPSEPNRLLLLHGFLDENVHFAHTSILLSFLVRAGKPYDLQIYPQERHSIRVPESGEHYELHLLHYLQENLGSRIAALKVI
Sequence of DPP-9 (Q86TI2 whole entry): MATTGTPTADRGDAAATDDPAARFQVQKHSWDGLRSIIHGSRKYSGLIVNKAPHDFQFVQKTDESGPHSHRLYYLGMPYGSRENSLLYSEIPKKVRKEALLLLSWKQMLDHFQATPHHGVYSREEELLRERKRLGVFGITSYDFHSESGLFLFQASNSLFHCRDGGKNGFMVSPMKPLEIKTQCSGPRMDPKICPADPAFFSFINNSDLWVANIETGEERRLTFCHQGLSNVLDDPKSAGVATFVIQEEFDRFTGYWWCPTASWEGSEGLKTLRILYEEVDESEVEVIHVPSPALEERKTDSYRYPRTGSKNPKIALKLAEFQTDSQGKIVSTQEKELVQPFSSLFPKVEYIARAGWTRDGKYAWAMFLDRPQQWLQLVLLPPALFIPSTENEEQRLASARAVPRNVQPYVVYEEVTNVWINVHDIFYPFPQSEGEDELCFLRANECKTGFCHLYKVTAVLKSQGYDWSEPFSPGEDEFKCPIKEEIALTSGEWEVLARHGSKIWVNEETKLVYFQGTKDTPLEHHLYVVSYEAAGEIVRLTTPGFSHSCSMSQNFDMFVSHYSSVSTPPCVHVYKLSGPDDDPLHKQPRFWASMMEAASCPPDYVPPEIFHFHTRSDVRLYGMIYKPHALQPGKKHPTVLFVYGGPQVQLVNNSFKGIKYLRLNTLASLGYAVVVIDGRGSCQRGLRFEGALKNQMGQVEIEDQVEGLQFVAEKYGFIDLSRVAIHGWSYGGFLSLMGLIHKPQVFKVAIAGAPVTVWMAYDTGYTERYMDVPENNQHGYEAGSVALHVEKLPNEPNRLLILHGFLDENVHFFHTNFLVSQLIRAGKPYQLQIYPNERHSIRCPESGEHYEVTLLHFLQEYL

Turning to `Cn1c(=O)cc(N2CCC[C@@H](N)C2)n(Cc2ccccc2C#N)c1=O` [Alogliptin, reference compound], the “AUC of OGTT” value in data set [1] (setting [4]) amounted to 15451 ± 110 mg·min/dL; in data set [1] (without MET, alogliptin 20 mg/kg/day oral, four weeks), 20835 ± 146 mg·min/dL.
In general, IC50 refers to the concentration needed to halve the response being measured. On to `O=C(SC1=NC(c2ccccc2)=CC(c2ccccc2)N1)c1ccccc1CN1C(=O)c2ccccc2C1=O` (stereo not drawn) [Compound 10a, S-(4,6-Diphenyl-1,6-dihydropyrimidin-2-yl)2-((1,3-dioxoisoindolin-2-yl)methyl)benzothioate], for which the IC50 on recombinant human DPP-4 was 0.0197 ± 0.00127 µM; against DPP-8, greater than 100 µM; against DPP-9, greater than 100 µM. In addition, in data set [2], the “% DPPH Scavenging” value is 73.85 ± 2.46%.
With `COc1ccc(C2C=C(c3ccc(Cl)cc3)N=C(SC(=O)c3ccccc3CN3C(=O)c4ccccc4C3=O)N2)cc1` (stereo not drawn) [Compound 10b, S-(4-(4-Chlorophenyl)-6-(4-methoxyphenyl)-1,6-dihydropyrimidin-2-yl)2-((1,3-dioxoisoindolin-2-yl)methyl)benzothioate], the “Fold DPP-4 inhibitory activity relative to alogliptin” value on recombinant human DPP-4 turned out to be 1.5 fold. Also, the IC50 at recombinant human DPP-4 is 0.00378 ± 0.00023 µM; against DPP-8, greater than 100 µM; on DPP-9 it was greater than 100 µM. The “% DPPH Scavenging” value in data set [2] came out at 74.28 ± 1.69%.
Broadly, the viability is a per cent measure of how many cells are alive, often set against a control. For `O=C(SC1=NC(c2ccc(Cl)cc2)=CC(c2ccc(Cl)cc2)N1)c1ccccc1CN1C(=O)c2ccccc2C1=O` (stereo not drawn) [Compound 10c, S-(4,6-Bis(4-chlorophenyl)-1,6-dihydropyrimidin-2-yl)2-((1,3-dioxoisoindolin-2-yl)methyl)benzothioate], the IC50 at recombinant human DPP-4 is 0.0147 ± 0.00082 µM; against DPP-8 it was greater than 100 µM; at DPP-9, greater than 100 µM. Besides, the viability at 48 h, 30 µM in data set [3] (30 µM) was found to be 72.6%. Further, the viability at 48 h, 50 µM in data set [3] was 72.5%. The “% DPPH Scavenging” value in data set [2] turned out to be 52.39 ± 0.93%.
Turning to `Cc1ccc(C2=CC(c3ccc(Cl)cc3)NC(SC(=O)c3ccccc3CN3C(=O)c4ccccc4C3=O)=N2)cc1` (stereo not drawn) [Compound 10d, S-(6-(4-Chlorophenyl)-4-(p-tolyl)-1,6-dihydropyrimidin-2-yl)2-((1,3-dioxoisoindolin-2-yl)methyl)benzothioate], the “Fold DPP-4 inhibitory activity relative to alogliptin” value on recombinant human DPP-4 is listed as 2.6 fold. Further, the IC50 was 0.00219 ± 0.00014 µM on recombinant human DPP-4, greater than 100 µM on DPP-8 and greater than 100 µM against DPP-9. Besides, in data set [2], the “% DPPH Scavenging” value is 80.16 ± 1.38%.
Regarding `CN(C)c1ccc(C2C=C(c3ccc(Br)cc3)N=C(SC(=O)c3ccccc3CN3C(=O)c4ccccc4C3=O)N2)cc1` (stereo not drawn) [Compound 10e, S-(4-(4-Bromophenyl)-6-(4-(dimethylamino)phenyl)-1,6-dihydropyrimidin-2-yl) 2-((1,3-dioxoisoindolin-2-yl)methyl)benzothioate], at recombinant human DPP-4, the “Fold DPP-4 inhibitory activity relative to alogliptin” value is recorded as 4 fold and the half-maximal inhibitory concentration (IC50) is 0.00142 ± 0.00011 µM. The compound further showed an IC50 on DPP-8 greater than 100 µM. The compound further showed an IC50 on DPP-9 greater than 100 µM. Besides, in data set [1] (four weeks), the “Glucose tolerance (AUC of OGTT versus non-treated diabetic group)” value is given as “significantly improved glucose tolerance above alogliptin” and the “Reduction of AUC of OGTT by MET addition” value is on record as 22.82%. Further, the “% DPPH Scavenging” value in data set [2] amounted to 87.21 ± 2.58%.
`O=C(SC1=NC(c2ccc(Cl)cc2)=CC(c2ccccc2)N1)c1ccccc1CN1C(=O)c2ccccc2C1=O` (stereo not drawn) [Compound 10f, S-(4-(4-Chlorophenyl)-6-phenyl-1,6-dihydropyrimidin-2-yl)2-((1,3-dioxoisoindolin-2-yl)methyl)benzothioate]: the IC50 at recombinant human DPP-4 is 0.0315 ± 0.00241 µM; against DPP-8, greater than 100 µM; at DPP-9, greater than 100 µM. For the same compound, the “% DPPH Scavenging” value in data set [2] is listed as 57.63 ± 2.14%.
As for `Nc1ccc(C2=CC(c3ccc(Cl)cc3)NC(SC(=O)c3ccccc3CN3C(=O)c4ccccc4C3=O)=N2)cc1` (stereo not drawn) [Compound 10h, S-(4-(4-Aminophenyl)-6-(4-chlorophenyl)-1,6-dihydropyrimidin-2-yl)2-((1,3-dioxoisoindolin-2-yl)methyl)benzothioate], the IC50 is 0.0104 ± 0.00054 µM on recombinant human DPP-4, greater than 100 µM on DPP-8 and greater than 100 µM at DPP-9. Further, the viability at 48 h, 50 µM in data set [3] worked out at 77.5%. Moreover, the “% DPPH Scavenging” value in data set [2] stood at 85.74 ± 2.76%.
On to `O=C(SC1=NC(c2ccc(Cl)cc2)=CC(c2ccco2)N1)c1ccccc1CN1C(=O)c2ccccc2C1=O` (stereo not drawn) [Compound 10i, S-(4-(4-Chlorophenyl)-6-(furan-2-yl)-1,6-dihydropyrimidin-2-yl)2-((1,3-dioxoisoindolin-2-yl)methyl)benzothioate], for which the “Fold DPP-4 inhibitory activity relative to alogliptin” value on recombinant human DPP-4 is on record as 8.6 fold. Besides, the IC50 was 0.00066 ± 4e-05 µM on recombinant human DPP-4, greater than 100 µM against DPP-8 and greater than 100 µM against DPP-9. Also, in data set [3] (10 µM), the viability at 48 h, 10 µM was 74.6%. The DPP-4 blood activity at blood DPP-4 activity (12 h) is reported as 18.8%; at blood DPP-4 activity (24 h) it was 49.9%; at blood DPP-4 activity (48 h), 76%. For the same compound, the “Glucose tolerance (AUC of OGTT versus non-treated diabetic group)” value in data set [1] (four weeks) is reported as “significantly improved glucose tolerance above alogliptin”. The “Reduction of AUC of OGTT by MET addition” value in data set [1] (four weeks) stood at 21.7%. Also, the “% DPPH Scavenging” value in data set [2] is given as 69.11 ± 1.44%.
For the compound `Nc1ccc(C2=CC(c3cccc4ccccc34)NC(SC(=O)c3ccccc3CN3C(=O)c4ccccc4C3=O)=N2)cc1` (stereo not drawn) [Compound 10j, S-(4-(4-Aminophenyl)-6-(naphthalen-1-yl)-1,6-dihydropyrimidin-2-yl)2-((1,3-dioxoisoindolin-2-yl)methyl)benzothioate], the figures for the half-inhibitory concentration (IC50) on recombinant human DPP-4, against DPP-8 and against DPP-9 were 0.00735 ± 0.00036 µM, greater than 100 µM and greater than 100 µM, respectively. For the same compound, in data set [2], the “% DPPH Scavenging” value is 93.52 ± 1.65%.
Consider “S-(4-(4-Chlorophenyl)-6-(4-nitrophenyl)-1,6-dihydropyrimidin-2-yl)2-((1,3-dioxoisoindolin-2-yl)methyl)benzothioate [Compound 10g]”, for which the “Fold DPP-4 inhibitory activity relative to alogliptin” value at recombinant human DPP-4 worked out at 11.2 fold. For the same compound, the figures for the IC50 on recombinant human DPP-4, against DPP-8 and against DPP-9 were 0.00051 ± 3e-05 µM, greater than 100 µM and greater than 100 µM, respectively. The DPP-4 blood activity was found to be 18.45% on blood DPP-4 activity (12 h), 47% on blood DPP-4 activity (24 h) and 73.3% on blood DPP-4 activity (48 h). Also, the “Glucose tolerance (AUC of OGTT versus non-treated diabetic group)” value in data set [1] (four weeks) is “significantly improved glucose tolerance above alogliptin”. Besides, the “AUC of OGTT” value in data set [1] (setting [4]) was 13787 ± 201 mg·min/dL. Besides, the “Reduction of AUC of OGTT by MET addition” value in data set [1] (four weeks) is given as 22.93%. Moreover, in data set [2], the “% DPPH Scavenging” value is recorded as 49.47 ± 1.08%.
